Data as given in patent publication US8507411B2, “Neoglycorandomization and digitoxin analogs” (priority 2004, dated 2013).
Read-outs that look alike come from different tables or passages of the source.

What was measured:
Hep3B = test: High-throughput calcein AM cytotoxicity assay, Hep3B; format: cell-based, human; conditions: Hep 3B cells
From the text: (§1) Standard errors are depicted with error bars.

SK-OV-3 = test: cells; format: cell-based, human; conditions: SK-OV-3 cells
From the text: (§2) In the assay, live cells were distinguished by the presence of a ubiquitous intracellular enzymatic activity which converts the non-fluorescent cell-permeable molecule calcein AM to the intensely fluorescent molecule calcein, which is retained within live cells. The IC50 value for each library member represents at least six replicates of dose-response experiments conducted over five concentrations using two-fold dilutions. […] Standard errors are depicted with error bars. Numerical values and corresponding error values can be found in Table 4. Du145: […]; MCF7: human breast carcinoma; HCT-116: human colon carcinoma, Hep3B: human liver carcinoma; SF-268: human CNS glioblastoma; SK-OV-3: human ovary adenocarcinoma; NCI-H460: human lung carcinoma; A549: human lung adenocarcinoma; NCI/ADR-RES: human breast carcinoma; NmuMG: mouse mammary normal epithelial.
(§3) Cell Culture: All cell lines except NmuMG were maintained in RPMI 1640 medium from InVitrogen (Cat No. 11875-085) supplemented with 10% w/v fetal bovine serum (FBS) from ICN (Cat No. 2916154) and penicillin-streptomycin (PS) (100 U/mL and 100 μg/mL) from InVitrogen (Cat No. 15140-122). NmuMG cells were maintained in DMEM medium from InVitrogen (Cat No. 11965-084) supplemented with 10% w/v fetal bovine serum (FBS) from ICN (Cat No. 2916154), 10 μg/ml insulin (InVitrogen Cat No 12585-014), and penicillin-streptomycin (PS) (100 U/mL and 100 μg/mL) from InVitrogen (Cat No. 15140-122). Cells were harvested by trypsinization using 0.25% w/v trypsin and 0.1% w/v EDTA from InVitrogen (Cat No. 15-050-057) and then counted in a hemocytometer in duplicate with better than 10% agreement in field counts. Cells were plated at a cell density of 10,000-15,000 cells/well of each Corning Costar 96-well black tissue culture treated microtiter plate (Fisher Cat No. 07-200-627). Cells were grown for 1 h at 37° C., with 5% CO2 in a humidified incubator to allow cell attachment to occur before compound addition.
(§4) Library Member Handling and Preparation for Cytotoxicity Assays: Library members were stored at −20° C. under dessicating conditions before the assay. Library member stocks (100×) were prepared in Corning Costar polypropylene 96-well V-bottom polypropylene microtiter plates (Fisher Cat No. 07-200-695). Five serial 1:2 dilutions were made with anhydrous DMSO at 100× the final concentration used in the assay.
(§5) Library Member Addition: The library member-containing plates were diluted 1:10 with complete cell culture media. The 10× stocks (10 μL) were added to the attached cells using a Biomek FX liquid handler (Beckman-Coulter). Library member stocks (10 μL) were added to 90 μL of cells in each plate to insure full mixing of stocks with culture media using a Beckman FX liquid handler with 96-well head.
(§6) Determination of Cytotoxicity: Cells were incubated with the library members for 72 h before fluorescence reading. Test plates were removed from the incubator and washed 1× in sterile PBS to remove serum containing calcium esterases. Calcein AM reagent (30 μL, […]) was added and the cells were incubated for 30 min at 37° C. Plates were read for emission using a fluorescein filter (excitation 485 nm, emission 535 nm).
(§7) IC50 Calculation: For each library member, at least six dose response experiments were conducted. […] To calculate IC50, percent inhibitions were plotted as a function of log [concentration] and then fit to a four-parameter logistic model that allowed for a variable Hill slope using XLfit 4.1.
(§8) Cytotoxicity Assays. All cell lines except NmuMG were maintained in RPMI 1640 medium supplemented with 10% w/v fetal bovine serum (FBS) and penicillin-streptomycin (PS) (100 U/mL and 100 μg/mL).

NCI/ADR-RES = test: cells; format: cell-based, human; conditions: NCI/ADR-RES cells
From the text: as §2, §3, §4, §5, §6, §7, §8

Du145 = test: High-throughput calcein AM cytotoxicity assay, Du145; format: cell-based, human; conditions: Du145 cells
From the text: as §1

A549 = test: High-throughput calcein AM cytotoxicity assay, A549; format: cell-based, human; conditions: A549 cells
From the text: as §1

NmuMG = test: cells; format: cell-based, mouse
From the text: as §2, §3, §4, §5, §6, §7, §8

MCF7 = test: High-throughput calcein AM cytotoxicity assay, MCF7; format: cell-based, human; conditions: MCF7 cells
From the text: as §1

HCT-116 = test: High-throughput calcein AM cytotoxicity assay, HCT-116; format: cell-based, human; conditions: HCT-116 cells
From the text: as §1

SF-268 = test: cells; format: cell-based, human; conditions: SF-268 cells
From the text: as §2, §3, §4, §5, §6, §7, §8

NCI-H460 = test: High-throughput calcein AM cytotoxicity assay, NCI-H460; format: cell-based, human; conditions: NCI-H460 cells
From the text: as §1

[1] = NmuMG cells (mouse mammary normal epithelial control line), read-out: IC50
[2] = NmuMG mouse mammary normal epithelial control line, read-out: IC50, NmuMG

| Compound | IC50 (Hep3B; read-out: IC50) [µM] | IC50 (SK-OV-3; read-out: IC50) [µM] | IC50 (NCI/ADR-RES; read-out: IC50) [µM] | IC50 (Du145; read-out: IC50) [µM] | IC50 (A549; read-out: IC50) [µM] | IC50 (NmuMG; [1]) [µM] | IC50 (MCF7; read-out: IC50, MCF7) [µM] | IC50 (HCT-116; read-out: IC50, HCT-116) [µM] | IC50 (Hep3B; read-out: IC50, Hep 3B) [µM] | IC50 (SF-268; read-out: IC50, SF-268) [µM] | IC50 (SK-OV-3; read-out: IC50, SK-OV-3) [µM] | IC50 (NCI/ADR-RES; read-out: IC50, NCI/ADR-RES) [µM] | IC50 (Du145; read-out: IC50, Du145) [µM] | IC50 (A549; read-out: IC50, A549) [µM] | IC50 (NCI-H460; read-out: IC50, NCI-H460) [µM] | IC50 (NmuMG; [2]) [µM] | IC50 (MCF7; read-out: IC50) [µM] | IC50 (HCT-116; read-out: IC50) [µM] | IC50 (SF-268; read-out: IC50) [µM] | IC50 (NCI-H460; read-out: IC50) [µM] |
| --- | --- | --- | --- | --- | --- | --- | --- | --- | --- | --- | --- | --- | --- | --- | --- | --- | --- | --- | --- | --- |
| CON(C1CCC2(C)C(CCC3C2CCC2(C)C(C4=CC(=O)OC4)CCC32O)C1)C1OC(CO)C(OC2OC(CO)C(O)C(O)C2O)C(O)C1O (stereo not drawn) [37α, maltoside] | > 25 | > 25 | > 25 | > 25 | > 25 | > 25 | – | – | – | – | – | – | – | – | – | – | – | – | – | – |
| 6-keto-D-galactoside [31α] | – | – | – | – | – | > 25 | > 25 | > 25 | > 25 | > 25 | > 25 | > 25 | > 25 | > 25 | > 25 | – | – | – | – | – |
| 6-keto-D-galactoside [31β] | – | – | – | – | – | – | 9 | 3.1 | 3.1 | 8 | 2.9 | 1 | 1.5 | 2.3 | 2.4 | > 25 | – | – | – | – |
| CON(C1CCC2(C)C(CCC3C2CCC2(C)C(C4=CC(=O)OC4)CCC32O)C1)C1OC(CO)C(O)C(O)C1O [28α, L-idoside] | – | – | – | – | – | > 25 | > 25 | > 25 | > 25 | > 25 | > 25 | > 25 | > 25 | > 25 | > 25 | – | – | – | – | – |
| CON([C@H]1CC[C@@]2(C)[C@H](CC[C@@H]3[C@@H]2CC[C@]2(C)[C@@H](C4=CC(=O)OC4)CC[C@]32O)C1)[C@@H]1O[C@H](CO)[C@H](O)[C@H](O)[C@H]1O [22β, D-galactoside] | – | – | – | – | – | – | 3 | 1.8 | 0.6 | 1.2 | 1.5 | 0.8 | 1.5 | 0.97 | 1.6 | 1.5 | – | – | – | – |
| CON(C1CCC2(C)C(CCC3C2CCC2(C)C(C4=CC(=O)OC4)CCC32O)C1)C1OC(COC2OC(CO)C(O)C(O)C2O)C(O)C(O)C1O (stereo not drawn) [35α, melibioside] | > 25 | > 25 | > 25 | > 25 | > 25 | > 25 | – | – | – | – | – | – | – | – | – | – | > 25 | > 25 | > 25 | > 25 |
| CON([C@H]1CC[C@@]2(C)[C@H](CC[C@@H]3[C@@H]2CC[C@]2(C)[C@@H](C4=CC(=O)OC4)CC[C@]32O)C1)[C@@H]1O[C@H](CO)[C@@H](O)[C@@H](O)[C@@H]1O [20β, D-altroside] | – | – | – | – | – | – | 1.5 | 1.1 | 0.35 | 1.1 | 1.1 | 0.9 | 1.2 | 0.54 | 0.62 | 0.9 | – | – | – | – |
| CON(C1CCC2(C)C(CCC3C2CCC2(C)C(C4=CC(=O)OC4)CCC32O)C1)C1OC(CO)C(OC2OC(CO)C(O)C(O)C2O)C(O)C1O (stereo not drawn) [37β, maltoside] | – | – | – | – | – | – | > 25 | 24 | 7 | 6 | 5 | 4.4 | 4.4 | 4.4 | 6.1 | – | – | – | – | – |
| CON(C1CCC2(C)C(CCC3C2CCC2(C)C(C4=CC(=O)OC4)CCC32O)C1)C1CC(O)C(O)C(CO)O1 [9α, 2-deoxy-D-galactoside] | – | – | – | – | – | – | > 25 | > 25 | > 25 | > 25 | > 25 | > 25 | > 25 | > 25 | > 25 | > 25 | – | – | – | – |
| CON(C1CCC2(C)C(CCC3C2CCC2(C)C(C4=CC(=O)OC4)CCC32O)C1)C1OC(CO)C(O)C(O)C1NC(C)=O [34β, N-acetyl-D-galactosaminoside] | – | – | – | – | – | – | > 25 | > 25 | 17 | > 25 | 17 | 6.4 | > 25 | > 25 | 20 | > 25 | – | – | – | – |
| CON(C1CCC2(C)C(CCC3C2CCC2(C)C(C4=CC(=O)OC4)CCC32O)C1)C1OCC(O)C(O)C1O [5α, L-riboside] | – | – | – | – | – | – | > 25 | > 25 | > 25 | > 25 | > 25 | > 25 | > 25 | > 25 | > 25 | > 25 | – | – | – | – |
| CON(C1CCC2(C)C(CCC3C2CCC2(C)C(C4=CC(=O)OC4)CCC32O)C1)C1OC(CO)C(O)C(O)C1O [22α, D-galactoside] | – | – | – | – | – | – | > 25 | > 25 | > 25 | > 25 | > 25 | > 25 | > 25 | > 25 | > 25 | > 25 | – | – | – | – |
| CON(C1CCC2(C)C(CCC3C2CCC2(C)C(C4=CC(=O)OC4)CCC32O)C1)C1OCC(O)C(O)C1O [14α, L-lyxoside] | – | – | – | – | – | – | > 25 | > 25 | > 25 | > 25 | > 25 | > 25 | > 25 | > 25 | > 25 | > 25 | – | – | – | – |
| CON([C@H]1CC[C@@]2(C)[C@H](CC[C@@H]3[C@@H]2CC[C@]2(C)[C@@H](C4=CC(=O)OC4)CC[C@]32O)C1)[C@H]1O[C@@H](CO)[C@H](O)[C@@H](O)[C@H]1O [26β, L-mannoside] | – | – | – | – | – | – | 3 | 4.2 | 2 | 2.1 | 3.1 | 4.8 | 2 | 1.7 | 1.6 | 1.3 | – | – | – | – |
| CON(C1CCC2(C)C(CCC3C2CCC2(C)C(C4=CC(=O)OC4)CCC32O)C1)C1OC(CO)C(OC2OC(CO)C(O)C(O)C2O)C(O)C1O (stereo not drawn) [36β, lactoside] | – | – | – | – | – | – | > 25 | > 25 | 26 | > 25 | 19 | 13 | – | 24 | > 25 | > 25 | – | – | – | – |
| CON(C1CCC2(C)C(CCC3C2CCC2(C)C(C4=CC(=O)OC4)CCC32O)C1)C1OCC(O)C(O)C1O [24α, D-xyloside] | – | – | – | – | – | – | > 25 | > 25 | > 25 | – | – | – | > 25 | > 25 | > 25 | – | – | – | – | – |
| CON(C1CCC2(C)C(CCC3C2CCC2(C)C(C4=CC(=O)OC4)CCC32O)C1)C1OCC(O)C(O)C1O [23α, L-xyloside] | – | – | – | – | – | – | > 25 | > 25 | > 25 | – | – | – | > 25 | > 25 | > 25 | – | – | – | – | – |
